Test systems include SR leukemia; UO-31 renal; SK-OV-3 ovarian; HOP-62 NSCLC; NCI/ADR-RES ovarian; CCRF-CEM leukemia; UACC-62 melanoma; OVCAR-5 ovarian; IGROV1 ovarian; NCI-H226 lung.
Assay in all cases: NCI anticancer screen, dose series, 48 h

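Test compounds were applied to cells in 96-well plates for 48 hours at 5 doses. Here, GI50 denotes the concentration required for 50% inhibition of growth. TGI denotes the concentration required for complete inhibition of growth.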 Where only a bound is given, the exact number is not on record here.

As for `COc1cc([C@@H]2OC[C@@H]3C(c4cc(OC)c5c(c4)OCO5)OC[C@@H]32)cc(OC)c1OC` (stereo not given in full), the TGI in the assay with SR leukemia, with UO-31 renal, in the assay on SK-OV-3 ovarian, in the assay on HOP-62 NSCLC, in the assay on NCI/ADR-RES ovarian and in the assay on CCRF-CEM leukemia was above 100 µM in each case. For the same compound, the TGI in the assay with UACC-62 melanoma, with OVCAR-5 ovarian, in the assay on IGROV1 ovarian and in the assay with NCI-H226 lung was above 100 µM each time.

Turning to `CC(=O)OCC1OC(n2cnc(C(N)=S)c2N)C(OC(C)=O)C1OC(C)=O` (stereo not given), the TGI with SR leukemia, in the assay on UO-31 renal, with SK-OV-3 ovarian, in the assay on HOP-62 NSCLC, with NCI/ADR-RES ovarian and in the assay with CCRF-CEM leukemia was above 100 µM throughout. In addition, the TGI in the assay on UACC-62 melanoma, with OVCAR-5 ovarian, in the assay with IGROV1 ovarian and with NCI-H226 lung was above 100 µM each time.

Consider `CCC1C2Cc3ccc(O)cc3C1(CC)CCN2C` (stereo not given), for which the TGI in the assay with SR leukemia, in the assay on UO-31 renal, in the assay on SK-OV-3 ovarian, in the assay with HOP-62 NSCLC, with NCI/ADR-RES ovarian and in the assay on CCRF-CEM leukemia was above 100 µM each time. Moreover, the TGI with UACC-62 melanoma, with OVCAR-5 ovarian, with IGROV1 ovarian and in the assay on NCI-H226 lung was above 100 µM throughout.

As to `COc1ccc(/C(COc2ccc3c(=O)cc(-c4ccccc4)oc3c2)=N\O)cc1`, the GI50 in the assay on SR leukemia is 6.61 µM; in the assay with UO-31 renal, 13.5 µM; in the assay on SK-OV-3 ovarian it was 16.1 µM; with HOP-62 NSCLC it was 26.1 µM; in the assay with NCI/ADR-RES ovarian, 15.4 µM; in the assay with CCRF-CEM leukemia, above 50 µM. The GI50 in the assay with UACC-62 melanoma is 10.9 µM; in the assay on OVCAR-5 ovarian it was 0.402 µM; in the assay on IGROV1 ovarian, 16.6 µM; in the assay on NCI-H226 lung it was 17.7 µM. Further, the TGI with SR leukemia is above 32 µM; in the assay with UO-31 renal it was above 50 µM; with SK-OV-3 ovarian, 48.4 µM; in the assay with HOP-62 NSCLC, above 50 µM; with NCI/ADR-RES ovarian, above 50 µM; in the assay on CCRF-CEM leukemia, above 50 µM. Further, the TGI was 31.4 µM with UACC-62 melanoma, above 10.2 µM with OVCAR-5 ovarian, above 47.6 µM in the assay on IGROV1 ovarian and above 50 µM in the assay with NCI-H226 lung.

Turning to `COc1ccc(C(=O)c2cc(OC)c(OC)c(OC)c2)cc1OC(=O)CCl`, the GI50 in the assay with SR leukemia is below 0.01 µM; in the assay on UO-31 renal, 0.373 µM; in the assay with SK-OV-3 ovarian, 0.163 µM; in the assay with HOP-62 NSCLC, 0.224 µM; in the assay with NCI/ADR-RES ovarian it was below 0.0167 µM; in the assay with CCRF-CEM leukemia, 0.0297 µM. In addition, the GI50 was 0.565 µM in the assay on UACC-62 melanoma, 3.61 µM in the assay on OVCAR-5 ovarian, 0.359 µM with IGROV1 ovarian and 11.3 µM in the assay on NCI-H226 lung. In addition, the TGI in the assay with SR leukemia, in the assay on UO-31 renal, in the assay with SK-OV-3 ovarian, in the assay with HOP-62 NSCLC, in the assay on NCI/ADR-RES ovarian and in the assay with CCRF-CEM leukemia was above 100 µM throughout. Moreover, the TGI in the assay on UACC-62 melanoma, in the assay with OVCAR-5 ovarian, in the assay with IGROV1 ovarian and with NCI-H226 lung was above 100 µM each time.
